Measurements taken from patent US20090312624A1, “ELECTROPHY[…] FOR COGNITIVE MODULATORS” (priority 2008, published 2009).
“Also recorded” adds a separate entry of the source. Read-outs that look alike come from different tables or passages of the source.

Columns and labels:
prefrontal cortex = assay: Evoked-response potential (ERP) recorded in the prefrontal cortex following electrical stimulation of the ventral subiculum of the hippocampus; format: in vivo, rat; settings: for effect on the ERP recorded in the PFC (change from baseline): cognition-enhancing dose 0.5 mg/kg i.p., 0-30 min after administration, 0.5 mg/kg
Description: Male Sprague-Dawley rats (250-350 g) were surgically implanted with 1-4 EEG recording electrodes into the prelimbic region of the PFC (coordinates: A +3.0±1.0 mm; L 0.8±0.3 mm; V −3.0) and a stimulation electrode into the subiculum/CA1 region of the hippocampus (coordinates: A −6.7; L 5.5; V −6.5). EEG signals were referenced to a ground electrode. Electrodes were held in place with acrylic cement and the animals were allowed to recover for 5-10 days prior to the measurements. Animals were provided with free access to food and water during testing.
Animals were tested during daylight hours in a Plexiglas testing chamber (32×32×40 cm) housed in a sound-attenuating chamber. Animals were first habituated to the testing chamber prior to experimentation. Field potentials/EEG signals were amplified and recorded digitally.
ERPs were constructed from peristimulus time histograms. Stimulation intensity that provides a distinct, though not large, ERP (filtered approx. 0.5-150 Hz) was first confirmed from greater than or equal to 50 stimulations that were provided at greater than or equal to 0.1 Hz. Stimulus current (0.1-3.0 mA) from a constant current source was adjusted to produce ERPs that were at least detectable from background electrical activity. Following this calibration of subiculum/CA1 stimulation intensity, ERPs were then collected from one or two 15-minute blocks comprised of a 10-min of hippocampal stimulation period ([…]) followed by 5-minutes of no stimulation. Following baseline recordings, vehicle or a putative cognitive enhancing compound (i.e., psychostimulant such as MPH or other drugs) were administered. ERPs were recorded in 15-min blocks described above for the next 60-90-minutes.
Changes in ERPs were calculated from trial-bin counts used to generate peristimulus time histograms (PSTHs). Data were collected from non-sleep EEG states only, as determined from field potential recordings or in combination with video or other activity measurements. Each PSTH was generated from randomly selected stimulus presentations. Data were expressed as a percentage of baseline ERP activity (pre-vehicle or pre-MPH) and percentage change from saline, which permits comparisons between subjects with different magnitude/shape ERPs.
Appropriate statistical comparisons, including mixed two-way ANOVA with both repeated (time)- and between (treatments)-measures, were used to determine statistical significance of candidate compound-induced changes in PFC. Analyses of ERPs as a function of dose and time and post-hoc comparisons were performed (i.e., Fisher LSD test).

PFC-dependent cognition = settings: rats, cited from earlier work
[1] = tested on: catecholamine (norepinephrine and dopamine) neurotransmission; settings: moderately higher doses that do not improve PFC-dependent cognition; cited from earlier work

COC(=O)C(c1ccccc1)C1CCCCN1 (stereo not shown) [MPH, methylphenidate]
components of the ERP versus pre-treatment recordings (baseline) (prefrontal cortex; 30-60 minute period following drug treatment): a number of components of the ERP were different
effect on the ERP recorded in the PFC (change from baseline) (prefrontal cortex): clearly visible and distinct change from baseline; also recorded: alter the magnitude of specific components of the ERP
effect on the ERP recorded in the PFC (change from baseline) (prefrontal cortex; listed as methylphenidate): significant effects
effect on the ERP recorded in the PFC (prefrontal cortex; higher doses that do not improve PFC-dependent cognition (2.0 mg/kg i.p.)): do not significantly affect this ERP; also recorded: not observed
effect on PFC-dependent cognition (PFC-dependent cognition; 0.5 mg/kg): exerting cognition-enhancing effects
effect on PFC-dependent cognition (PFC-dependent cognition; 2.0 mg/kg): cognition-impairing; also recorded: lacking cognition-enhancing actions
selective targeting of prefrontal cortical catecholamines [1]: not observed
